Legend:
[1] = test system: human H460 non-small cell lung carcinoma cells; experiment: H460 non-small cell lung carcinoma xenograft tumor growth in CD-1 nude mice; assay type: in vivo; conditions: 28 days, 7 treatments once every 4 days, Pemetrexed i.p. 200 mg/kg, Lucanthone oral 80 mg/kg
Description: (§1) Methods: Groups of CD-1 nude mice were xenografted subcutaneously with human H460 non-small cell lung carcinoma cells. Treatments were initiated when tumor growth reached approximately 130 mm^3. Treatments were administered 7 times at frequency of once every 4 days and included vehicles, Pemetrexed given intraperitoneally at 200 mg/kg, Lucanthone given orally at 80 mg/kg, and the combinations of Pemetrexed and Lucanthone at the same doses. The tumor growths and body weight change were followed for 28 days.

[2] = Body weight change in the H460 xenograft study; assay type: in vivo, CD-1 nude mice; conditions: 28-day period; Pemetrexed i.p. 200 mg/kg, Lucanthone oral 80 mg/kg, once every 4 days x7; vehicles −2.9%
Description: as §1

## Nc1nc2[nH]cc(CCc3ccc(C(=O)N[C@@H](CCC(=O)O)C(=O)O)cc3)c2c(=O)[nH]1 [Pemetrexed, N-[4-[2-(2-amino-4,7-dihydro-4-oxo-1H-pyrrolo[2,3-d]pyrimidin-5-yl)ethyl]-benzoyl]-L-glutamic acid]
[1]
  growth inhibition compared to the vehicle-treated group: 33%
[1]; vehicles 42
  fold of increases of the tumor volume: 28 fold
[2]
  body weight changes excluding the tumor weights: −0.9%

Reference: US20090221615A1, “COMBINATION ANTI-CANCER AGENTS” (priority 2008, published 2009)
